Values joined by “and” are separate entries in the source; they are usually repeats but may differ in a detail not shown here. Equal entries are not always repeated.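 Step 1: Grow cells in 96-well plates. Step 2: Expose to compound for 48 hours at 5 concentrations. Step 3: Interpolate endpoints linearly; if unreached, use highest concentration. GI50 = concentration required for 50% inhibition of growth. The concentration for full growth arrest is given as TGI.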
Assays:
Test in all cases: NCI tumour cell line growth inhibition, 48 h
SF-295 CNS = test system: SF-295 CNS
EKVX NSCLC = test system: EKVX NSCLC
SW-620 colon = test system: SW-620 colon
NCI-H460 lung = test system: NCI-H460 lung
LOX IMVI melanoma = test system: LOX IMVI melanoma
MDA-MB-435 = test system: MDA-MB-435
MCF7 breast = test system: MCF7 breast
CAKI-1 renal = test system: CAKI-1 renal
KM12 colon = test system: KM12 colon
COLO 205 colon = test system: COLO 205 colon

Structure (SMILES)	GI50 (SF-295 CNS)	TGI (SF-295 CNS)	GI50 (EKVX NSCLC)	TGI (EKVX NSCLC)	GI50 (SW-620 colon)	TGI (SW-620 colon)	GI50 (NCI-H460 lung)	TGI (NCI-H460 lung)	GI50 (LOX IMVI melanoma)	TGI (LOX IMVI melanoma)	GI50 (MDA-MB-435)	TGI (MDA-MB-435)	GI50 (MCF7 breast)	TGI (MCF7 breast)	GI50 (CAKI-1 renal)	TGI (CAKI-1 renal)	GI50 (KM12 colon)	TGI (KM12 colon)	GI50 (COLO 205 colon)	TGI (COLO 205 colon)
N#Cc1cc(-c2ccccc2)[nH]c1-c1nccc2ccccc12	7.07 µM	> 100 µM	5.86 µM	> 100 µM	61.5 µM	> 100 µM	18.1 µM	> 100 µM	15.6 µM	> 100 µM	10.5 µM	78.1 µM	5.76 µM	> 100 µM	12.5 µM	> 100 µM	20.7 µM	> 100 µM	11.7 µM	33.2 µM
Nc1nn(C(=O)Nc2ccc(Cc3ccccc3)cc2)c2ccc(Cl)cc12	0.122 µM	19.9 µM	5.85 µM	98.8 µM	0.724 µM	54.3 µM	0.0658 µM	15.3 µM	0.137 µM	20.1 µM	0.138 µM	> 100 µM	0.422 µM	18 µM	0.212 µM	> 100 µM	0.0755 µM	> 100 µM	1.92 µM	28.9 µM
NC(=O)c1cccc(N)c1	> 100 µM	> 100 µM	> 100 µM	> 100 µM	> 100 µM	> 100 µM	> 100 µM	> 100 µM	> 100 µM	> 100 µM	> 100 µM	> 100 µM	> 100 µM	> 100 µM	> 100 µM	> 100 µM	> 100 µM	> 100 µM	> 100 µM	> 100 µM
COc1cccc(C2=NN(C(C)=O)C(c3cc(OC)c(OC)c(OC)c3)C2)c1 (stereo not given)	0.576 µM	3.98 µM	4.96 µM	> 100 µM	0.668 µM	> 100 µM	2.14 µM	11.2 µM	7.22 µM	> 100 µM	0.224 µM	0.782 µM	0.529 µM	> 32.3 µM	2.79 µM	> 100 µM	1.48 µM	> 100 µM	3.35 µM	12.3 µM
Cc1nc(NC(=O)COc2cccc(/C=C3\COc4ccccc4C3=O)c2)sc1C	1.64 µM	3.33 µM	1.24 µM	3.12 µM	1.08 µM	2.39 µM	3.19 µM	11.3 µM	1.01 µM	2.55 µM	2.14 µM	5.74 µM	0.665 µM	2.83 µM	1.5 µM	3.41 µM	1.5 µM	2.92 µM	1.96 µM	3.88 µM
O=C(O[C@H]1CN[C@H](C#Cc2cc3ncnc(Nc4ccc(Cc5ccccc5)cc4)c3s2)C1)N1CCOCC1	> 13.6 µM	> 25 µM	1.94 µM	> 25 µM	5.93 µM	17.7 µM	7.52 µM	> 25 µM	4 µM	8.03 µM	6.33 µM	> 22.5 µM	5.63 µM	> 20.6 µM	2.08 µM	> 24.1 µM	4.28 µM	8.72 µM	5.37 µM	13.1 µM
COC(=O)c1c2c(c[n+]([O-])c1C)C(=O)C(NCc1ccccc1)=CC2=O	0.885 µM	2.15 µM	1.06 µM	2.56 µM	0.319 µM	1.29 µM	0.425 µM	1.65 µM	0.279 µM	1.32 µM	0.193 µM	0.376 µM	0.224 µM	0.726 µM	1.27 µM	3.18 µM	0.608 µM	3.03 µM	0.312 µM	0.984 µM
Oc1ccc(Cl)cc1Cc1cc(Cl)cc(Cc2cc(Cl)ccc2O)c1O		7.36 µM		7.19 µM		13.5 µM		4.96 µM		9.82 µM		9.3 µM		6.98 µM		13 µM		10.5 µM		3.25 µM
CCCCCCCCCCCCCCCCCC(=O)[O][Sn]([CH2]CCC)([CH2]CCC)[CH2]CCC	0.162 µM	0.435 µM	0.0713 µM	0.297 µM	0.137 µM	0.289 µM	0.109 µM	0.251 µM	0.133 µM	0.38 µM	0.149 µM	0.441 µM	0.134 µM	0.267 µM	0.0524 µM	0.214 µM	0.124 µM	0.266 µM	0.171 µM	0.373 µM
Clc1ccc(N/N=C/c2ccccn2)nc1	0.452 µM	> 100 µM	0.352 µM	> 100 µM	0.468 µM	> 100 µM	0.379 µM	> 42.7 µM	0.326 µM	18.6 µM	0.56 µM	> 100 µM	0.338 µM	> 100 µM	0.341 µM	> 22.7 µM	0.395 µM	> 54.7 µM	0.342 µM	18.6 µM
NC(Cc1cc(Br)c(O)c(Br)c1)C(=O)O (stereo not given)		> 100 µM		> 100 µM		> 100 µM		> 100 µM		> 100 µM		> 100 µM		> 100 µM		> 100 µM		> 100 µM		> 100 µM
CCNC(=O)Nc1ccc(-c2nc3c(c(N4CCOC[C@@H]4C)n2)CCN(C2COC2)C3)cc1	0.158 µM and 0.166 µM	1.43 µM and 1.84 µM	0.323 µM	> 9.65 µM	0.793 µM and 0.61 µM	> 100 µM	0.236 µM and 0.13 µM	> 100 µM	0.411 µM and 0.329 µM	> 100 µM	0.3 µM and 0.318 µM	> 25.6 µM	0.121 µM and 0.115 µM	> 100 µM	0.586 µM and 0.179 µM	> 31.5 µM	0.507 µM and 0.403 µM	> 100 µM	0.289 µM and 0.268 µM	> 100 µM
Clc1ccc(-c2nc(-c3c[nH]c4ncccc34)cs2)cc1	> 100 µM	> 100 µM	0.582 µM	> 100 µM	36.3 µM	> 100 µM	> 100 µM	> 100 µM	> 100 µM	> 100 µM	> 100 µM	> 100 µM	> 100 µM	> 100 µM	> 100 µM	> 100 µM	> 100 µM	> 100 µM	> 100 µM	> 100 µM

Reference: PubChem BioAssay (NCI)
